Experiment: Inhibition of PAD4 in C57BL/6 mouse bone marrow neutrophils assessed as inhibition of PMA-stimulated neutrophil extracellular trap formation preincubated for 30 mins followed by PMA stimulation measured after 3 to 4 hrs by DNA/neutrophil elastase overlap assay

CC(C)(C)n1nnc([C@H](CCCNC(=N)CCl)NC(=O)c2ccc(-c3ccccc3)cc2)n1
EC50: 20 µM

From BindingDB's records for doi:10.1021/jm501636x (University of Massachusetts Medical School, 2015)
